From patent publication US20230055021A1, “METHODS FOR TREATING PSYCHIATRIC DISORDERS OR SYMPTOMS THEREOF USING NCAM PEPTIDE MIMETICS” (The Board of Trustees of the Leland Stanford Junior …, priority 2012, published 2023)

Key:
adult rats [1] = assay: forced swim test (FST), depression-like behavior; type: in vivo
Method: The NCAM peptide mimetic FGLm (5 μg) or vehicle was administered intracerebroventricularly (i.c.v.) to adult rats. […]
FGLL (10 mg/kg, s.c.) or control was also administered to adult rats via injection every 24 hours for 16 days. Animals were tested for locomotion on Day 13, tested for anxiety-like behavior with the EPM on Day 14, tested for depression-like behavior with the FST on Days 15 and 16, and sacrificed on Day 17. […]

adult rats [2] = assay: elevated plus maze (EPM), anxiety-like behavior; type: in vivo; conditions: 1, 5 or 10 mg/kg s.c., injected 30 minutes before test
Method: The NCAM peptide mimetic FGLL (1 mg/kg, 5 mg/kg, or 10 mg/kg) or control was administered subcutaneously (s.c.) to adult rats. For the elevated plus maze (EPM), which measures anxiety-like behavior, animals were injected 30 minutes before the test. For the FST, which measures depression-like behavior, animals were injected 1 hour and 5 hours after Day 1 and 30 minutes before Day 2.
The NCAM peptide mimetic plannexin (10 mg/kg) or vehicle control was acutely administered intraperitoneally (i.p.) to adult rats.
Plannexin (10 mg/kg, i.p.) or control was also chronically administered to adult rats via injection every 48 hours on odd days. Animals were tested for locomotion on Day 13, tested for anxiety-like behavior with the EPM on Day 14, tested for depression-like behavior with the FST on Days 15 and 16, and sacrificed on Day 17.

[3] = 10 mg/kg s.c. every 24 hours for 16 days, FST on Days 15 and 16

CC(C)[C@H](NC(=O)[C@H](CCC(=O)O)NC(=O)CNCC(=O)N[C@@H](CCC(=O)O)C(=O)N[C@H](C(=O)N[C@H](C(=O)N[C@@H](C)C(=O)N[C@@H](CCC(=O)O)C(=O)N[C@@H](CC(N)=O)C(=O)N[C@@H](CCC(N)=O)C(=O)N[C@@H](CCC(N)=O)C(=O)NCC(=O)N[C@@H](CCCCN)C(=O)N[C@@H](CO)C(=O)N[C@@H](CCCCN)C(=O)N[C@@H](C)C(N)=O)C(C)C)C(C)C)C(=O)N[C@H](C(=O)N[C@@H](C)C(=O)N[C@@H](CCC(=O)O)C(=O)N[C@@H](CC(N)=O)C(=O)N[C@@H](CCC(N)=O)C(=O)N[C@@H](CCC(N)=O)C(=O)NCC(=O)N[C@@H](CCCCN)C(=O)N[C@@H](CO)C(=O)N[C@@H](CCCCN)C(=O)N[C@@H](C)C(N)=O)C(C)C (stereo in doubt) [FGLL]
climbing in FST (adult rats [1]; [3]): significantly more climbing
effect on depression as measured by the FST (adult rats [1]; [3]): decreased depression
immobility in FST (adult rats [1]; [3]): less immobility
effect on anxiety as measured by the EPM (adult rats [2]): increased anxiety
time spent in the Closed parts of the EPM (adult rats [2]; effect at higher doses): significantly increased

EVYVVAENQQGKSKA [FGLm, NCAM peptide mimetic]
effect on depression as measured by the FST (adult rats [1]; 5 μg i.c.v., vs vehicle): decreased depression
immobility in FST (adult rats [1]; 5 μg i.c.v., vs vehicle): less immobility
swimming in FST (adult rats [1]; 5 μg i.c.v., vs vehicle): significantly more swimming
